From the NIST ThermoML archive (doi:10.1016/j.jct.2019.02.026)
Numbers after ± are expanded uncertainties.

Details: Liquid, Falling or rolling sphere viscometry

CCCCCCCCCCCC(=O)OC [methyl dodecanoate]
Details	viscosity [mPa·s]
302.7 K, 30290 kPa	3.6 ± 0.11
302.94 K, 20178 kPa	3.15 ± 0.1
303.04 K, 110 kPa	2.53 ± 0.08
303.04 K, 10512 kPa	2.85 ± 0.09
312.33 K, 30212 kPa	2.87 ± 0.09
312.5 K, 20279 kPa	2.59 ± 0.08
312.61 K, 10214 kPa	2.33 ± 0.07
312.63 K, 134 kPa	2.09 ± 0.07
331.07 K, 29762 kPa	2.04 ± 0.06
331.34 K, 20420 kPa	1.86 ± 0.06
331.51 K, 10354 kPa	1.67 ± 0.05
331.66 K, 132 kPa	1.51 ± 0.05
351.24 K, 29906 kPa	1.53 ± 0.05
351.57 K, 20226 kPa	1.37 ± 0.04
351.74 K, 10090 kPa	1.25 ± 0.04
351.81 K, 235 kPa	1.14 ± 0.04
361.57 K, 30100 kPa	1.35 ± 0.04
361.6 K, 19931 kPa	1.25 ± 0.04
361.75 K, 10141 kPa	1.12 ± 0.04
362.23 K, 2921 kPa	1.05 ± 0.03

CCCCCCC(=O)OC [methyl heptanoate]
Details	viscosity [mPa·s]
292.04 K, 30028 kPa	1.5 ± 0.05
292.56 K, 25040 kPa	1.42 ± 0.04
292.87 K, 19994 kPa	1.35 ± 0.04
293.58 K, 14994 kPa	1.28 ± 0.04
293.85 K, 9970 kPa	1.22 ± 0.04
294.13 K, 4967 kPa	1.17 ± 0.04
294.2 K, 107 kPa	1.11 ± 0.04
302.83 K, 29961 kPa	1.24 ± 0.04
302.93 K, 25017 kPa	1.2 ± 0.04
303.02 K, 19985 kPa	1.15 ± 0.04
303.05 K, 14993 kPa	1.1 ± 0.03
303.08 K, 10026 kPa	1.05 ± 0.03
303.12 K, 5011 kPa	1 ± 0.03
303.15 K, 102 kPa	0.95 ± 0.03
312.49 K, 29986 kPa	1.09 ± 0.03
312.57 K, 25001 kPa	1.05 ± 0.03
312.62 K, 20047 kPa	1.01 ± 0.03
312.65 K, 10009 kPa	0.92 ± 0.03
312.66 K, 15001 kPa	0.97 ± 0.03
312.77 K, 103 kPa	0.83 ± 0.03
312.78 K, 5010 kPa	0.88 ± 0.03
322.09 K, 29925 kPa	0.97 ± 0.03
322.17 K, 19955 kPa	0.89 ± 0.03
322.21 K, 15004 kPa	0.85 ± 0.03
322.23 K, 10018 kPa	0.81 ± 0.03
322.23 K, 25027 kPa	0.93 ± 0.03
322.26 K, 5004 kPa	0.77 ± 0.02
322.33 K, 96 kPa	0.73 ± 0.02
331.56 K, 30001 kPa	0.87 ± 0.03
331.67 K, 19865 kPa	0.8 ± 0.03
331.68 K, 25041 kPa	0.83 ± 0.03
331.74 K, 15035 kPa	0.76 ± 0.02
331.78 K, 5007 kPa	0.69 ± 0.02
331.78 K, 9972 kPa	0.72 ± 0.02
331.85 K, 99 kPa	0.65 ± 0.02
341.48 K, 14961 kPa	0.69 ± 0.02
341.67 K, 96 kPa	0.58 ± 0.02
341.68 K, 10141 kPa	0.65 ± 0.02
341.72 K, 5062 kPa	0.62 ± 0.02
341.73 K, 29980 kPa	0.78 ± 0.02
341.8 K, 25032 kPa	0.75 ± 0.02
341.81 K, 20048 kPa	0.72 ± 0.02
351.26 K, 14966 kPa	0.61 ± 0.02
351.27 K, 10077 kPa	0.58 ± 0.02
351.31 K, 19977 kPa	0.64 ± 0.02
351.46 K, 30010 kPa	0.7 ± 0.02
351.49 K, 24997 kPa	0.67 ± 0.02
361.24 K, 29993 kPa	0.64 ± 0.02
361.37 K, 20002 kPa	0.58 ± 0.02
361.47 K, 25022 kPa	0.61 ± 0.02

CCCCCC(=O)OC [methyl hexanoate]
Details	viscosity [mPa·s]
292.99 K, 29973 kPa	1.16 ± 0.04
293.48 K, 25055 kPa	1.11 ± 0.04
293.98 K, 19999 kPa	1.06 ± 0.03
294.34 K, 15024 kPa	1.01 ± 0.03
294.63 K, 9980 kPa	0.96 ± 0.03
294.75 K, 5079 kPa	0.92 ± 0.03
294.86 K, 105 kPa	0.87 ± 0.03
302.79 K, 29963 kPa	1.01 ± 0.03
302.89 K, 24988 kPa	0.97 ± 0.03
302.98 K, 19967 kPa	0.93 ± 0.03
303.01 K, 15014 kPa	0.89 ± 0.03
303.05 K, 10031 kPa	0.86 ± 0.03
303.09 K, 5026 kPa	0.81 ± 0.03
303.12 K, 107 kPa	0.77 ± 0.02
312.57 K, 29951 kPa	0.89 ± 0.03
312.62 K, 24986 kPa	0.85 ± 0.03
312.69 K, 15010 kPa	0.78 ± 0.02
312.69 K, 20046 kPa	0.82 ± 0.03
312.7 K, 4988 kPa	0.71 ± 0.02
312.71 K, 10033 kPa	0.75 ± 0.02
312.74 K, 103 kPa	0.68 ± 0.02
321.96 K, 29975 kPa	0.8 ± 0.03
322.08 K, 9972 kPa	0.67 ± 0.02
322.12 K, 19979 kPa	0.74 ± 0.02
322.14 K, 24972 kPa	0.77 ± 0.02
322.29 K, 98 kPa	0.61 ± 0.02
322.29 K, 5048 kPa	0.64 ± 0.02
322.32 K, 15008 kPa	0.7 ± 0.02
331.74 K, 30010 kPa	0.72 ± 0.02
331.8 K, 25008 kPa	0.69 ± 0.02
331.83 K, 14994 kPa	0.63 ± 0.02
331.89 K, 9984 kPa	0.6 ± 0.02
331.93 K, 20001 kPa	0.66 ± 0.02
341.38 K, 29965 kPa	0.64 ± 0.02
341.39 K, 20015 kPa	0.59 ± 0.02
341.41 K, 25042 kPa	0.62 ± 0.02
